The values below come from patent US5663197A, “2-(1-hydroxyethyl)-5-hydroxynaphtho[2,3-b]furan-4,9-dione and antitumor agents comprising this compound” (priority 1992, dated 1997).

In brackets after ≈: the same amount, converted by molar mass.

A short description of data set [1]: General toxicology in ICR mice. The settings on record: mouse, in vivo, ICR mice (male).
Another data set deals with lung adenomas in mice. Put plainly: Inhibition of two-step carcinogenesis in mouse lungs. Format: in vivo, mouse (female ICR). As for the experimental part:
Female ICR mice were used as test animals. Fifteen mice were housed in a cage and provided with the pellet diet and drinking water ad libitum. After one week of preliminary rearing, the six-week-old mice were given in the back a subcutaneous injection of 10 mg/kg body weight of 4-nitroquinoline-N-oxide (4NQO) dissolved in a mixture of olive oil and cholesterol (20:1). From five weeks after initiation, the mice were allowed to orally take 8% glycerol ad libitum as a carcinogenic promoter. The mice which received 4 NQO and 8% glycerol for 25 weeks served as a positive control. On the other hand, the mice in the test group were given ad libitum 8% glycerol containing 0.1 ng/ml of NFD for 25 weeks. Thirty weeks after the onset of the experiment, the mice were killed by cervical dislocation, and the lungs were removed after fixation with formalin under autopsy. Under a stereomicroscope, the adenomas formed in the lung were observed, and the number of adenomas was determined. The numbers were compared between the positive control and NFD-administered groups.

The test system of data set [2] is carcinogenic promotion (skin papillomas in mice). The data set can be described thus: Inhibition of two-step skin carcinogenesis in mice skin. Format: in vivo, mouse (female ICR). As to conditions: DMBA initiator, TPA promoter, 20 weeks; FIG. 28 (NFD 85 nmol), FIG. 29 (lapacoal).
Protocol: Female ICR mice were used as test animals. Fifteen mice were housed in a cage and kept on a commercial pellet diet and drinking water ad libitum until the end of the experiment. The mice were purchased at their age of six-week-old. Dorsal hair of mice was shaved, and next day, 390 nmol of 7,12-dimethylbenz(a)anthracene (DMBA) in 0.1 ml acetone was applied, as an initiator, on the shaved back. One week later, 1.7 nmol of 12-O-tetradecanoylphorbol-13-acetate (TPA) in 0.1 ml acetone was applied, as a promoter, to the same place twice a week. This procedure was repeated for 20 weeks.
Mice were observed once a week for the number of papillomas larger than 1 mm, and the experimental results were given as the percentage of papilloma-bearing mice in each group and the number of papillomas per mouse.
The subject of data set [3] is Human thyroid carcinoma 8305C cells. Put plainly: In vitro antitumor test (trypan blue exclusion viable cell count), 8305C. It is filed as cell-based. The protocol: (§1) An appropriate amount of NFD was dissolved in DMSO to give a 1.0 mg/ml stock solution, which was diluted as necessary before use.
(§2) The following cells in the late logarithmic phase were harvested after treatment with trypsin (containing 0.25% trypsin and 0.02% EDTA; 37° C., 3 min) and used in the test: human lung adenocarcinoma cell lines A-549, VMRC-LCD and SK-LU-1, human lung squamous cell carcinoma Calu-1 cells, human colon adenocarcinoma WiDr cells, human prostate cancer LNCaP cells, human vaginal squamous cell carcinoma A-431 cells, human cervical carcinoma HeLa cells, human cholangiocarcinoma HuCC-T1 cells, mouse skin cancer melanoma B16 (M4) cells, human pancreatic carcinoma ASPC-1 cells, human neuroblastoma IMR-132 cells, human lung small cell carcinoma SCCH-194 cells, human uninary bladder carcinoma T24 cells, human renal cell carcinoma […] cells, human gastric cancer NUGC-2 cells, human thyroid carcinoma 8305C cells, human hepatoma HUH-7 cells, human ovarian carcinoma TYK-nu cells and human chorio carcinoma BeWo cells. […] These cells were plated onto a 96-well microplate at a density of 5-10×10^3 cells/cm^2 using DMEM or RPMI-1640 medium containing 10% fetal bovine serum and cultured for 24 hours in a conventional manner, after which a pre-determined amount of NFD dissolved in DMSO was added to each well. […]

In data set [4] the test system is Human lung squamous cell carcinoma Calu-1 cells. The data set can be described thus: In vitro antitumor test (trypan blue exclusion viable cell count), Calu-1. Format: cell-based. As to conditions: 72 h, three days exposure, read-out: LD50 (IC50), 50% growth-inhibitory dose. The protocol: as §1, §2
The next data set relates to malignant tumor cells. Put plainly: In vitro antitumor test, panel of malignant tumor cells. Format: cell-based, human and mouse. The protocol:
as §1
The antitumor effect of NFD on human cancer cells and mouse cancer cells was assessed according to the following methods.
as §2, with “cells. Suspension cultures of human breast cancer MRK-nu-1 cells, human malignant B-cell lymphoma cells and human chronic myelogenous leukemia K562 cells were used to harvest the cells to be used in the test.” for “cells.”, “well. Cultivation was continued, and the number of viable cells was counted after 24, 48 and 72 hours.” for “well.”
Growth inhibitory action and lethal activity of NFD on various types of malignant tumor cells and normal human cells listed above were evaluated by counting the number of viable cells in each well of the 96-well microplate. […]

For data set [5], the system named is Human breast cancer MRK-nu-1 cells. The data set can be described thus: In vitro antitumor test (trypan blue exclusion viable cell count), MRK-nu-1. Format: cell-based. As for the experimental part: as §1, §2
The nature of a further data set: Solubility. It is filed as physicochemical.
In data set [6] the test system is Human chronic myelogenous leukemia K562 cells. The data set can be described thus: In vitro antitumor test (trypan blue exclusion viable cell count), K562. It is filed as cell-based. As to conditions: 72 h, three days exposure, read-out: LD50 (IC50), 50% growth-inhibitory dose. As for the experimental part: as §1, §2
Data set [7] has as its system Mouse melanoma B16 (M4) cells. Put plainly: In vitro antitumor test (trypan blue exclusion viable cell count), B16 (M4). Format: cell-based. As for the experimental part: as §1, §2
The mark [8] stands for this setting: 72 h, three days exposure, read-out: LD50 (IC50), 50% growth-inhibitory dose.

For the compound `CC(O)c1cc2c(o1)C(=O)c1cccc(O)c1C2=O` (stereo not shown) [NFD, 2-(1-hydroxyethyl)-5-hydroxynaphtho[2,3-b]furan-4,9-dione], the LD50 came to 7.3 mg/kg in [1] (ip, intraperitoneally) and 8.4 mg/kg in [1] (po, orally). Moreover, the “inhibition of adenoma formation in the lung” value in the data set on lung adenomas in mice (0.1 ng/ml NFD in 8% glycerol, versus positive control) was “significant inhibition”. Besides, in the data set on lung adenomas in mice (30th week after onset, versus 4NQO + 8% glycerol group), the “expression percentage of lung adenomas, lower than that in the positive control group” value is listed as 1/3. Further, the “inhibitory effect on carcinogenic promotion in skin” value in data set [2] is reported as “inhibitory effect”. Besides, the IC50 in [3] (setting [8]) is 0.025 µg/mL (≈ 0.0968 µM); in data set [4], 0.017 µg/mL (≈ 0.0658 µM); in the data set with malignant tumor cells (read-out: LD50 (IC50) range over malignant tumor cells) it was 0.0055 to 0.025 µg/mL (≈ 0.0213 to 0.0968 µM); in data set [5] (setting [8]) it was 0.012 µg/mL (≈ 0.0465 µM); in [6] it was 0.014 µg/mL (≈ 0.0542 µM); in [7] (72 h, B16 (M4), three days exposure, read-out: LD50 (IC50), 50% growth-inhibitory dose) it was 6.7 ng/mL (≈ 0.0259 µM). Further, the IC (almost complete) in data set [3] (FIG. 19, read-out: concentration inhibiting growth almost completely) was determined as 0.028 µg/mL; in data set [5] (FIG. 20, read-out: concentration inhibiting growth almost completely), 0.033 µg/mL; in data set [7] (FIG. 10, read-out: concentration inhibiting growth almost completely), 0.0112 µg/mL. Further, in the data set on malignant tumor cells (23 listed tumor cells), the “selective toxicity to tumor cells” value is “exhibits selective toxicity”. The “growth inhibition of tumor cells” value in the data set with malignant tumor cells (at low concentrations, 23 listed tumor cells) is “remarkably inhibits the growth”. Also, the solubility in chloroform entry in the data set “Solubility” (chloroform) is “freely soluble”. In addition, the solubility in dimethylsulfoxide entry in the data set “Solubility” (dimethylsulfoxide) was “freely soluble”. Also, the solubility in water result in the data set “Solubility” (water) was “slightly soluble”.
